ChEMBL document CHEMBL1201862, “PubChem BioAssay data set” (2004)
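Step 1: Grow cells in 96-well plates. Step 2: Expose to compound for 48 hours at 5 concentrations. Step 3: Interpolate endpoints linearly; if unreached, use highest concentration. GI50 marks 50% less growth.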 The source made the active and inactive calls. Rule as the data show it: active = GI50 up to about 1.1 µM and inactive = higher.

Key:
Test in all cases: growth of human tumour cells (NCI), 48 h
A549 = tested on: A549
CCRF-CEM = tested on: CCRF-CEM
EKVX = tested on: EKVX
HCT-15 = tested on: HCT-15
HOP-62 = tested on: HOP-62
IGROV-1 = tested on: IGROV-1
LOX IMVI = tested on: LOX IMVI
MOLT-4 = tested on: MOLT-4
Malme-3M = tested on: Malme-3M
OVCAR-5 = tested on: OVCAR-5
OVCAR-8 = tested on: OVCAR-8
RPMI-8226 = tested on: RPMI-8226
SK-MEL-5 = tested on: SK-MEL-5
SW-620 = tested on: SW-620
TK-10 = tested on: TK-10
A498 = tested on: A498
BT-549 = tested on: BT-549
NCI/ADR-RES = tested on: NCI/ADR-RES
PC-3 = tested on: PC-3

Compound | GI50 (A549) | GI50 (CCRF-CEM) | GI50 (EKVX) | GI50 (HCT-15) [µM] | GI50 (HOP-62) | GI50 (IGROV-1) | GI50 (LOX IMVI) | GI50 (MOLT-4) | GI50 (Malme-3M) | GI50 (OVCAR-5) | GI50 (OVCAR-8) | GI50 (RPMI-8226) | GI50 (SK-MEL-5) | GI50 (SW-620) | GI50 (TK-10) | GI50 (A498) | GI50 (BT-549) | GI50 (NCI/ADR-RES) | GI50 (PC-3)
O=C1CCC(=O)N1Cc1ccccc1/N=[N+](\[O-])c1ccccc1CN1C(=O)CCC1=O | > 100 µM (inactive) | > 100 µM (inactive) | > 100 µM (inactive) | > 100 | > 100 µM (inactive) | > 100 µM (inactive) | > 100 µM (inactive) | > 100 µM (inactive) | > 100 µM (inactive) | > 100 µM (inactive) | > 100 µM (inactive) | > 100 µM (inactive) | > 100 µM (inactive) | > 100 µM (inactive) | > 100 µM (inactive) |  |  |  | 
NCCOCCOCC(=O)O | > 100 µM (inactive) |  | > 100 µM (inactive) | > 100 |  | > 100 µM (inactive) |  | > 100 µM (inactive) | > 100 µM (inactive) | > 100 µM (inactive) | > 100 µM (inactive) | > 100 µM (inactive) | > 100 µM (inactive) | > 100 µM (inactive) | > 100 µM (inactive) |  |  |  | 
CSc1nc(C)cc(=O)n1C1OC(COC(C)=O)C(OC(C)=O)C(OC(C)=O)C1OC(C)=O (centres undefined) | > 100 µM (inactive) | > 100 µM (inactive) | > 100 µM (inactive) | > 100 | > 10 µM (inactive) | > 100 µM (inactive) | > 100 µM (inactive) | > 100 µM (inactive) | > 100 µM (inactive) | > 100 µM (inactive) | > 100 µM (inactive) | > 100 µM (inactive) | > 100 µM (inactive) | > 100 µM (inactive) | > 100 µM (inactive) | > 100 µM (inactive) |  |  | 
O=C(c1ccccc1)N1CCN(C(=S)NC2CCCCC2)C1=S | 13.4 µM (inactive) | 12.2 µM (inactive) | 16.1 µM (inactive) | 15.8 | 18 µM (inactive) | 24.2 µM (inactive) | 16 µM (inactive) | 17.5 µM (inactive) | 15.5 µM (inactive) | 21.7 µM (inactive) | 17 µM (inactive) |  | 17.4 µM (inactive) | 21.6 µM (inactive) | 25.8 µM (inactive) | 19 µM (inactive) | 17.1 µM (inactive) | 17.7 µM (inactive) | 
CCOC(=O)Nn1c(C)nnc1CC#N | > 100 µM (inactive) |  |  | > 100 | > 100 µM (inactive) | > 100 µM (inactive) | > 100 µM (inactive) | > 100 µM (inactive) | > 100 µM (inactive) | > 100 µM (inactive) | > 100 µM (inactive) | > 100 µM (inactive) | > 100 µM (inactive) | > 100 µM (inactive) | > 100 µM (inactive) |  | > 100 µM (inactive) | > 100 µM (inactive) | > 100 µM (inactive)
C[C@]12CC=CC(=O)[C@@]1(C)CCC(=O)C2 | > 100 µM (inactive) | > 100 µM (inactive) | > 100 µM (inactive) |  | > 100 µM (inactive) | > 100 µM (inactive) |  | > 100 µM (inactive) | > 100 µM (inactive) | > 100 µM (inactive) | > 100 µM (inactive) |  | > 100 µM (inactive) | > 100 µM (inactive) | > 100 µM (inactive) | > 100 µM (inactive) |  |  | 
C[C@H]1CCCCC[C@@H]2CC(=O)CC2C(=O)CCC(=O)O1 (some centres undefined) | > 100 µM (inactive) | > 100 µM (inactive) | > 100 µM (inactive) | > 100 | > 100 µM (inactive) | > 100 µM (inactive) |  | > 100 µM (inactive) | > 100 µM (inactive) | > 100 µM (inactive) | > 100 µM (inactive) | > 100 µM (inactive) | > 100 µM (inactive) | > 100 µM (inactive) | > 100 µM (inactive) |  | > 100 µM (inactive) | 52.6 µM (inactive) | > 100 µM (inactive)
Cc1c(O)c(=O)ccn1CCc1ccc(O)cc1 | 32.9 µM (inactive) | 10 µM (inactive) | 20.4 µM (inactive) | 4.82 | 22.1 µM (inactive) |  | 20.5 µM (inactive) | 26.8 µM (inactive) | 22.5 µM (inactive) | 30 µM (inactive) | 31.3 µM (inactive) | 14.7 µM (inactive) | 21.3 µM (inactive) | 44.8 µM (inactive) | 15.8 µM (inactive) |  | > 100 µM (inactive) | 8.71 µM (inactive) | 25.9 µM (inactive)
c1cc(CSP234N5CCN2CCN3CCN4CC5)cc(CSP234N5CCN2CCN3CCN4CC5)c1 | 40.1 µM (inactive) | 16.5 µM (inactive) | 63.2 µM (inactive) | 22.3 | 28.6 µM (inactive) | 21.5 µM (inactive) | 16.1 µM (inactive) | 15.7 µM (inactive) |  | 86.7 µM (inactive) | 18.6 µM (inactive) | 14.5 µM (inactive) | 16.3 µM (inactive) | 28.8 µM (inactive) | 26.3 µM (inactive) |  | 19.2 µM (inactive) | 57.4 µM (inactive) | 25.3 µM (inactive)
COc1ccc(CCn2ccc(=O)c(O)c2C)cc1OC | 21.4 µM (inactive) |  | 24.4 µM (inactive) | 2.7 | 17.5 µM (inactive) |  | 25.5 µM (inactive) | 16 µM (inactive) | 30.7 µM (inactive) | 26.7 µM (inactive) | 16.9 µM (inactive) | 34 µM (inactive) | 13.5 µM (inactive) | 41.1 µM (inactive) | 5.87 µM (inactive) |  | 52.4 µM (inactive) | 7.45 µM (inactive) | 56.2 µM (inactive)
COc1ccccc1Cn1[nH]c(=O)c2cc([N+](=O)[O-])ccc21 | 93.1 µM (inactive) | > 100 µM (inactive) | > 100 µM (inactive) | > 100 | > 100 µM (inactive) | 43.5 µM (inactive) | > 100 µM (inactive) | > 100 µM (inactive) | > 100 µM (inactive) | > 100 µM (inactive) | > 100 µM (inactive) | > 100 µM (inactive) | > 100 µM (inactive) | 84.9 µM (inactive) | > 100 µM (inactive) | 26.5 µM (inactive) |  | 75.5 µM (inactive) | 
O=C1C2Cc3ccccc3CN2C(=O)N1CCN1CCCC1 (centres undefined) | > 100 µM (inactive) | > 100 µM (inactive) |  | > 100 | > 100 µM (inactive) | > 100 µM (inactive) | > 100 µM (inactive) | > 100 µM (inactive) | > 100 µM (inactive) | > 100 µM (inactive) | > 100 µM (inactive) | > 100 µM (inactive) | > 100 µM (inactive) | > 100 µM (inactive) | > 100 µM (inactive) | > 100 µM (inactive) |  |  | 
CC1(C)C2C=CC1(C)C1(CC2)OCCO1 (centres undefined) |  | > 100 µM (inactive) |  | > 100 | > 100 µM (inactive) | > 100 µM (inactive) | > 100 µM (inactive) | > 100 µM (inactive) | > 100 µM (inactive) | > 100 µM (inactive) | > 100 µM (inactive) | > 100 µM (inactive) |  | > 100 µM (inactive) | > 100 µM (inactive) | > 100 µM (inactive) |  | > 100 µM (inactive) | > 100 µM (inactive)
COc1ccc(/C=C/CO)cc1OC | > 100 µM (inactive) |  | > 100 µM (inactive) | > 100 |  | > 100 µM (inactive) |  | > 100 µM (inactive) | > 100 µM (inactive) | > 100 µM (inactive) | > 100 µM (inactive) | > 100 µM (inactive) | > 100 µM (inactive) | > 100 µM (inactive) | > 100 µM (inactive) |  |  |  | 
Cc1n[nH]c(=O)n1/N=C/c1ccc(Cl)cc1 | 61.2 µM (inactive) | 31.1 µM (inactive) | 13.3 µM (inactive) | > 100 | 32.5 µM (inactive) |  |  | 54.3 µM (inactive) |  | > 100 µM (inactive) | 83.6 µM (inactive) | > 100 µM (inactive) |  | 68.7 µM (inactive) |  | 40 µM (inactive) | 23.1 µM (inactive) | 49.3 µM (inactive) | 
CCOc1ccc(/C=C2\N=C(c3ccc([N+](=O)[O-])cc3)OC2=O)cc1 | > 100 µM (inactive) | > 100 µM (inactive) | > 100 µM (inactive) | > 100 | > 100 µM (inactive) | > 100 µM (inactive) | > 100 µM (inactive) | > 100 µM (inactive) | > 100 µM (inactive) | > 100 µM (inactive) | > 100 µM (inactive) | > 100 µM (inactive) | > 100 µM (inactive) | > 100 µM (inactive) | > 100 µM (inactive) | > 100 µM (inactive) | > 100 µM (inactive) |  | > 100 µM (inactive)
COc1ccc(C2Oc3c(cccc3OC)C=C2[N+](=O)[O-])cc1 (centres undefined) | 11.9 µM (inactive) | 0.451 µM (active) | 10.6 µM (inactive) | 1.36 | 2.49 µM (inactive) | 3.33 µM (inactive) | 1.2 µM (inactive) | 1.19 µM (inactive) | 2.54 µM (inactive) | 2.26 µM (inactive) | 2.49 µM (inactive) | 2.01 µM (inactive) | 1.51 µM (inactive) |  | 2.91 µM (inactive) |  | 1.36 µM (inactive) | 2.58 µM (inactive) | 1.69 µM (inactive)
CCOC(=O)c1nc2ccc(C(F)(F)F)cc2nc1NCc1ccc(F)cc1 | 42.8 µM (inactive) | 24.9 µM (inactive) | 37.8 µM (inactive) | 29.4 | 47.3 µM (inactive) | 26.5 µM (inactive) | 26.1 µM (inactive) | 42.8 µM (inactive) | 35.5 µM (inactive) | 64.3 µM (inactive) | 30.9 µM (inactive) | 23.5 µM (inactive) |  | 34.1 µM (inactive) | 27.9 µM (inactive) |  |  | 24 µM (inactive) | 29.4 µM (inactive)
